Source: patent US7683061B2, “Triazine dimers for the treatment of autoimmune diseases” (ProMetic BioSciences Inc., priority 2003, dated 2010)

What was measured:
NZBxNZW mice = assay: SLE-glomerulonephritis in NZBxNZW mice; assay type: in vivo
Text: New Zealand mice of the F1 hybrid cross NZBxNZW develop most of the autoimmune abnormalities seen in human SLE and die from SLE-like immune complex (IC)-mediated glomerulonephritis. The mice develop high titers of anti-DNA (double-strand and single-strand) and nuclear extract (NE) antibodies, as well as SLE-related clinical manifestations including leukopenia, thrombocytopenia, proteinuria and glomerulonephritis. These mice develop anti-DNA antibodies after the age of 3 months, with a peak of anti-DNA antibody response occurring at 7 months. Subsequently, the serum concentration of anti-DNA antibodies declines, presumably as a consequence of progressive uremia. The first serological manifestations of the disease occurs at about 150 days (5 months). Their survival is evaluated at approximately 250 days.
FIG. 2 illustrates the effect of compound 1 on the mortality of the NZBxNZW mice. Intravenous administration of compound or vehicle was undertaken once a week from week 18 to week 37. Treatment ceased for 11 weeks and was restarted at week 48 for the control and compound 1 groups. […] It also delays the appearance of symptoms and mortality up to week 45. FIG. 3 illustrates the proteinuria at week 48 to 51.

PBML cytotoxicity (MTT) = assay type: cell-based; conditions: human
Text: PBML were obtained from the peripheral blood of healthy volunteers. Blood was submitted to gradient centrifugation with Lympholyte-poly (Cedarlane, Hornby, Canada). The layer, which contains the mononuclear leukocytes, was collected and the cells washed three times in PBS. Cells were then suspended in RPMI (Gibco, Burlington, Canada) supplemented with […] (cyclone, Logan USA). Viability was greater than 99% as determined by trypan blue exclusion.
PBML were resuspended at 2×10^6 cells mL. 100 μL of PBML (2×10^5 cells) were incubated in a 96-well microtiter plate for 48 h in the presence or absence of compound or protein A. Cells were quiescent or stimulated with concanavalin A (ConA; T-cells) or pokeweed mitogen (PWM; B-cells). After incubation, cells were treated with MTT (cytotoxicity) or pulsed with 1 μCi of [^3]-thymidine (DNA synthesis), [^3H]-uridine (RNA synthesis) or [^3]-leucine (protein synthesis) for 6 h. Plates were harvested on a Tomteck and counted on a Microbeta β-counter.

[1] = test system: mice, oxazolone-induced DTH; assay: Oxazolone-induced delayed-type hypersensitivity (DTH); assay type: in vivo; conditions: for inflammation as seen by ear thickness: administered orally at day 0, 1 and 2, FIG. 8
Experimental: Compounds were tested for their ability to treat oxazolone-induced delayed-type hypersensitivity (DTH) in mice. On day 0, mice were sensitized with 100 μL of oxazolone in 5% acetone. On day 0, 1 and 2, mice were treated by intravenous or oral administrations of the vehicle (control) or methotrexate (MTX, positive control/IV) or hydrocortisone (positive control/PO) or the compound at 50 mg/kg to 300 mg/kg of body weight. Mice were challenged with an application of 50 μL of oxazolone on the surface of the right ear (first challenge, day 3; second challenge, day 10). Ear thickness was measured on day 4 to day 7, and on day 11 to 14. Redness and crust formation was also observed. Mice were sacrificed on day 14. TDTH (CD4) cells play an important role in regulating the intensity of the DTH response. Compounds may exert an inhibitory influence on the DTH response through its inhibition of T-cell activation and DNA, RNA and or protein synthesis.

MRL/lpr mice = assay: SLE-like syndrome in MRL/lpr mice; assay type: in vivo; conditions: control group 10%
Text: FIG. 5 is an example of the effect of compounds on survival of MRL/lpr mice. These mice also spontaneously develop SLE-like syndrome. MRL/lpr have a homozygous fas mutation, which accelerates autoimmunity. […] Furthermore, compounds 1 and 20 increase the survival (40%) compared to the control group (10%).

[2] = test system: female Lewis rats, adjuvant-induced arthritis; assay: Freund's adjuvant-induced arthritis (AIA); assay type: in vivo; conditions: for reduction of the inflammatory index: intravenous days −3, −2, −1, 12, 13, 14, 18, 19 and 20, from day 3 to day 5, FIG. 10
Text: AIA was induced in female Lewis rats by the injection of lyophilized Mycobacterium butyricum suspended in mineral oil into the footpad. The development of aridity was monitored over a 3 weeks period post-adjuvant injection, inflammation peaks at day 3 following the adjuvant administration. Immune activation appears around day 14. Compounds were orally or intravenously administered at different doses at day −3, −2 and −1 pre-adjuvant injection and at different regimen as specified in the exponent starting from day 10 through 21 post-adjuvant injection or animals were treated with oral admiration of compound 19a from day −3 to day 21. Body weight was recorded. The arthritis index, which is a measure of inflammation (oedema), redness and stiffness of the articulations, was used to monitor the development of the disease. The degree of arthritis was determined by measuring two perpendicular diameters of the ankles in the mediolateral and dorsoventral planes using a caliper. Joint circumference in millimeters is then calculated using a geometric formula. Both the incidence and severity of the arthritis was evaluated. Incidence is defined as the number of rats with clinical evidence of joint inflammation during the study period.

[3] = test system: TNFα-induced apoptosis, WEHI-13VAR cells; assay: TNFα induced apoptosis in WEHI-13VAR cells (MTT); assay type: cell-based, murine; conditions: Mus musculus
Experimental: Effect of compounds on TNFα-induced apoptosis was measured by a standard biological assay using WEHI-13VAR cells. These cells undergo apoptosis when they are incubated in the presence of TNFα and actinomycin D. 2×10^4 WEHI-13VAR cells were incubated in RPMI supplemented with 1% sodium pyruvate and 10% FBS, overnight at 37° C. for cell adherence. The cells were then cultured in the presence of 1 μg/mL of actinomycin D (to inhibit protein synthesis) and 0.04 nM TNFα with or without compounds at 37° C. After 16-24 h, 50 μL of a solution of 2 mg/mL of MTT was added to each well and the plate was then incubated for 4 h at 37° C. Only viable cells metabolize MTT to form formazan salt, which is detectable by the measurement of absorbance at 570 nm. After the incubation, the plate was inverted to remove medium and dead cells. 150 μL DMSO was added to each well to stop the reaction and solubilize the formazan salt. Optical density was read on a EL 800, universal Microplate reader (Bio-Tek). A decrease in the optical density is direct evidence of cell apoptosis induced by TNFα. Compounds were also compared to the activity of an anti-TNFα neutralizing antibody.

[4] = weekly intravenous, week 48 to week 52

Oc1ccc(CCNc2nc(NCCNc3nc(NCCc4ccc(O)cc4)nc(Nc4ccccc4)n3)nc(Nc3ccccc3)n2)cc1 [Compound 1]
delay of appearance of symptoms and mortality (NZBxNZW mice; intravenous once a week from week 18 to week 37): ≤ 45 week | mortality of NZBxNZW mice (NZBxNZW mice; intravenous once a week from week 18 to week 37, at week 37): reduces the mortality | extended survival (NZBxNZW mice; second SLE study, 65 weeks for control): up to 89 weeks | proteinuria: amount of protein greater than 5 g/liter (NZBxNZW mice; week 48 to 51, after 11 weeks without treatment): greater than the control | protein concentration (5 g/liter) in urine compared to the vehicle (NZBxNZW mice; [4]): decrease | trace amount of protein in urine (improvement in kidney filtration) (NZBxNZW mice; [4]): increase | IC50 at 48 h (PBML cytotoxicity (MTT); ConA stimulated PBML): 8.7 µM | IC50 at 48 h (PBML cytotoxicity (MTT); PWM stimulated PBML): > 10 µM | IC50 at 48 h (PBML cytotoxicity (MTT); Resting PBML): > 10 µM | inflammation as seen by ear thickness [1]: significant reduction of the inflammation | survival of MRL/lpr mice (MRL/lpr mice): 40% | reduction of the inflammatory index [2]: 20% | inhibition at 10 µM ([3]; 1 × 10^−5M): 36.8% | inhibition at 20 µM ([3]; 2 × 10^−5M): 17.7% | inhibition at 40 µM ([3]; 4 × 10^−5M): -3.8% | inhibition at 5 µM ([3]; 5 × 10^−6M): 14.3%

Nc1ccc(CCNc2nc(Nc3ccc(CCNc4nc(NCCO)nc(Nc5cccc(N)c5)n4)cc3)nc(Nc3cccc(N)c3)n2)cc1 [Compound 19a]
IC50 at 48 h (PBML cytotoxicity (MTT); ConA stimulated PBML): 6.8 µM | IC50 at 48 h (PBML cytotoxicity (MTT); PWM stimulated PBML): > 10 µM | IC50 at 48 h (PBML cytotoxicity (MTT); Resting PBML): ≥ 10 µM | potency compared to methotrexate ([1]; FIGS. 6 and 7): equipotent to methotrexate | inflammation as seen by ear thickness [1]: significant reduction of the inflammation | inhibition of chronic inflammation (days 12 to 21) ([2]; IV, days 12 to 19): strong and significant inhibition of inflammation | inhibition of chronic inflammation (days 12 to 21) ([2]; PO, day 16): strong and significant inhibition of inflammation | reduction of the inflammatory index [2]: 20% | inhibition of inflammation ([2]; oral administration, acute inflammation, compared to the control and methotrexate): significant inhibition of inflammation | inhibition of inflammation ([2]; orally every day (days −3 to 21), from day 13 through day 22, FIG. 12): up to 50%
